Columns and labels:
[1] = Hematology assays after subcutaneous administration in CD-1 mice (Example 6); format: in vivo; parameters: RBC / Eosinophils / Monocytes: unit not given here; conditions: 50 mg/kg subcutaneous twice weekly for 7 weeks
In short: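 Male CD-1 mice, 8-9 weeks old, 4 per group, given oligonucleotides 50 mg/kg s.c. twice weekly (100 mg/kg/week) for 7 weeks; PBS group as control. Blood analysed on an automated hematology analyzer for blood cell counts and other markers; plasma collected day 28.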

[2] = Plasma chemistry markers after oral gavage in beagle dogs (Example 12); conditions: 200 mg oral gavage for 4 weeks, plasma at day 30
Procedure: The study was conducted to evaluate the tolerability and pharmacodynamics of select human SMAD7 antisense oligonucleotides in beagle dogs following 4 weeks of treatment. The dogs were administered oligonucleotides by oral gavage.
Groups of 24-25 week old male beagle dogs were administered 200 mg Ionis human SMAD7 oligonucleotide by oral gavage once a week for 4 weeks. There were 4 animals per group. A control group of dogs received oral administration of distilled water. Dogs were sacrificed on day 30 approximately 48 hours after the final dose and organs and plasma were harvested for further analysis.
To evaluate the effect of Ionis SMAD7 oligonucleotides on liver and kidney function, approximately 1.5 mL of blood samples were collected and put into tubes without anticoagulant for serum separation. The tubes were kept at room temperature for a minimum of 90 min and then centrifuged (approximately 3,000 rpm for 10 min) to obtain serum. Plasma levels of transaminases, albumin, bilirubin, and BUN were measured using an automated clinical chemistry analyzer (Toshiba 200FR Neo chemistry analyzer, Toshiba Co., Japan).

human SMAD7 mRNA [3] = assay: Dose-dependent inhibition of human SMAD7 mRNA expression in Hep3B cells (Example 3, Study 1 and 2); format: cell-based; conditions: electroporation; for % inhibition of SMAD7 mRNA expression: approximately 16 hours
In short: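 Hep3B cells, 20,000 per well, electroporated with antisense oligonucleotide at 0.31, 1.25, 5.00 or 20.00 μM (first series) or 0.74, 2.22, 6.67 or 20.00 μM (second series). After ~16 h, SMAD7 mRNA measured by RT-qPCR (RTS5062), normalised to RIBOGREEN total RNA. Percent inhibition vs untreated cells; IC50 derived.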

[4] = Organ weights after subcutaneous administration in CD-1 mice (Example 6); format: in vivo; conditions: end of study, 50 mg/kg subcutaneously twice a week for 7 weeks
In short: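 Male CD-1 mice aged 8-9 weeks, 4 per group, were dosed subcutaneously twice weekly for 7 weeks with 50 mg/kg oligonucleotide (100 mg/kg/week), with PBS controls. Organ weights were assessed, and plasma was collected on day 28.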

[5] = Plasma chemistry markers after subcutaneous administration in CD-1 mice (Example 6); format: in vivo; conditions: CD-1 mice plasma at day 46; 50 mg/kg subcutaneously twice a week for 7 weeks
[6] = Pharmacokinetics: oligonucleotide concentration in the plasma on day 28 after oral gavage in beagle dogs (Example 12); format: in vivo; conditions: 200 mg oral gavage
Procedure: There were 4 animals per group.
Plasma concentrations of Ionis oligonucleotides were also measured on Day 28 at various time points.

human SMAD7 mRNA [7] = assay: Dose-dependent inhibition of human SMAD7 mRNA expression in A431 cells, oligonucleotide added without transfection (Example 5, Study 1); format: cell-based; conditions: approximately 48 hours
In short: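 A431 cells dosed with antisense oligonucleotide at 0.08–20.00 μM by free uptake immediately after plating, 48 h at 37° C. SMAD7 mRNA quantified by qRT-PCR (primer probe set RTS5062), normalised to RiboGreen total RNA. Values are % inhibition versus untreated cells.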

Substance: 798781 (CGTAAGATTCACAGCA; 3-10-3 cEt gapmer, further chemistry not given here) [compound 798781]
- Eosinophils [1]: 2.4
- Hematocrit [1]: 42.3%
- Hemoglobin [1]: 13.8 g/dL
- Lymphocytes [1]: 73.7%
- MCH [1]: 14.9 pg
- MCHC [1]: 32.6 g/dL
- MCV [1]: 45.8 fL
- Monocytes [1]: 5.2
- Neutrophils [1]: 18.8%
- RBC [1]: 9.3
- Reticulocytes [1]: 3.3%
- WBC [1]: 4.9 10^3/μL
- platelets [1]: 867.3 10^3/μL
- ALT (% of control) [2]: 115 % of control
- AST (% of control) [2]: 114 % of control
- Albumin (% of control) [2]: 101 % of control
- BUN (% of control) [2]: 104 % of control
- Bilirubin (% of control) [2]: 114 % of control
- % inhibition of SMAD7 mRNA expression (human SMAD7 mRNA [3]; 740 nM, Study 2, relative to untreated control cells): 46%
- % inhibition of SMAD7 mRNA expression (human SMAD7 mRNA [3]; 2220 nM, Study 2): 64%
- % inhibition of SMAD7 mRNA expression (human SMAD7 mRNA [3]; 6670.0 nM, Study 2): 81%
- % inhibition of SMAD7 mRNA expression (human SMAD7 mRNA [3]; 20000.0 nM, Study 2): 87%
- IC50 (human SMAD7 mRNA [3]; Study 2 (740-20000 nM)): 2000 nM
- Organ weights, Kidneys [4]: 0.6 g
- Organ weights, Liver [4]: 2.3 g
- Organ weights, Spleen [4]: 0.1 g
- ALT [5]: 40 IU/L
- AST [5]: 66 IU/L
- Albumin [5]: 2.2 g/dL
- BUN [5]: 26 mg/dL
- Oligonucleotide concentration in the plasma on day 28 ([6]; 2 hr): 18.7 ng/mL
- Oligonucleotide concentration in the plasma on day 28 ([6]; 4 hr): 5.4 ng/mL
- Oligonucleotide concentration in the plasma on day 28 ([6]; 8 hr): 3.6 ng/mL
- Oligonucleotide concentration in the plasma on day 28 ([6]; 24 hr): 0.4 ng/mL
- % inhibition of SMAD7 mRNA expression (human SMAD7 mRNA [7]; 0.08 μM): 23%
- % inhibition of SMAD7 mRNA expression (human SMAD7 mRNA [7]; 0.25 μM): 34%
- % inhibition of SMAD7 mRNA expression (human SMAD7 mRNA [7]; 0.74 μM): 41%
- % inhibition of SMAD7 mRNA expression (human SMAD7 mRNA [7]; 2.22 μM): 41%
- % inhibition of SMAD7 mRNA expression (human SMAD7 mRNA [7]; 6.67 μM): 57%
- % inhibition of SMAD7 mRNA expression (human SMAD7 mRNA [7]; 20.00 μM): 62%
- IC50 (human SMAD7 mRNA [7]; SMAD7 mRNA): 3600 nM

From patent US10517889B2, “Modulators of SMAD7 expression” (Ionis Pharmaceuticals, Inc., priority 2017, dated 2019)
